Measured values from ChEMBL document CHEMBL1201862, “PubChem BioAssay data set” (2004).
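Results reflect a 48-hour exposure of cells in 96-well plates to compound at five concentrations. Here, GI50 denotes the concentration required for 50% inhibition of growth.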 Calls of active or inactive are those of the source. Cut-off read from the data, not from the text of the source: active = GI50 up to about 1.1 µM and inactive = higher.

How the values were obtained:
Assay in all cases: inhibition of tumour cell growth, NCI panel, 48 h
786-0 = system: 786-0
A498 = system: A498
A549 = system: A549
ACHN = system: ACHN
CAKI-1 = system: CAKI-1
COLO 205 = system: COLO 205
DLD-1 = system: DLD-1
DMS-114 = system: DMS-114
DMS-273 = system: DMS-273
EKVX = system: EKVX
HCC 2998 = system: HCC 2998
HCT-116 = system: HCT-116
HCT-15 = system: HCT-15
HOP-18 = system: HOP-18
HOP-62 = system: HOP-62
HOP-92 = system: HOP-92
HT-29 = system: HT-29
IGROV-1 = system: IGROV-1
KM-20L2 = system: KM-20L2
KM12 = system: KM12
LOX IMVI = system: LOX IMVI
LXFL 529 = system: LXFL 529
M14 = system: M14
M19-MEL = system: M19-MEL
MOLT-4 = system: MOLT-4
Malme-3M = system: Malme-3M
NCI-H226 = system: NCI-H226
NCI-H23 = system: NCI-H23
NCI-H460 = system: NCI-H460
OVCAR-3 = system: OVCAR-3
OVCAR-4 = system: OVCAR-4
OVCAR-5 = system: OVCAR-5
OVCAR-8 = system: OVCAR-8
RXF 393 = system: RXF 393
SF-268 = system: SF-268
SF-295 = system: SF-295
SF-539 = system: SF-539
SK-MEL-28 = system: SK-MEL-28
SK-MEL-2 = system: SK-MEL-2
SK-MEL-5 = system: SK-MEL-5
SK-OV-3 = system: SK-OV-3
SN12C = system: SN12C
SNB-19 = system: SNB-19
SNB-75 = system: SNB-75
SNB-78 = system: SNB-78
SR = system: SR
SW-620 = system: SW-620
TK-10 = system: TK-10
U-251 = system: U-251
UACC-257 = system: UACC-257
UACC-62 = system: UACC-62
UO-31 = system: UO-31

CN(C)CC1CCCCCCCCCCCCC(CN(C)C)C1=O (configuration not stated)
GI50 (786-0): 10.1 µM (inactive) | GI50 (A498): 18.7 µM (inactive) | GI50 (A549): 15.5 µM (inactive) | GI50 (ACHN): 16.2 µM (inactive) | GI50 (CAKI-1): 13.3 µM (inactive) | GI50 (COLO 205): 14 µM (inactive) | GI50 (DLD-1): 15.6 µM (inactive) | GI50 (DMS-114): 16.9 µM (inactive) | GI50 (DMS-273): 10.4 µM (inactive) | GI50 (EKVX): 22.6 µM (inactive) | GI50 (HCC 2998): 10.2 µM (inactive) | GI50 (HCT-116): 4.54 µM (inactive) | GI50 (HCT-15): 18.7 µM | GI50 (HOP-18): 16.2 µM (inactive) | GI50 (HOP-62): 16.4 µM (inactive) | GI50 (HOP-92): 13.2 µM (inactive) | GI50 (HT-29): 5.66 µM (inactive) | GI50 (IGROV-1): 17.3 µM (inactive) | GI50 (KM-20L2): 11.9 µM (inactive) | GI50 (KM12): 11.1 µM (inactive) | GI50 (LOX IMVI): 8.43 µM (inactive) | GI50 (LXFL 529): 14.9 µM (inactive) | GI50 (M14): 13.2 µM (inactive) | GI50 (M19-MEL): 12.6 µM (inactive) | GI50 (MOLT-4): 2.09 µM (inactive) | GI50 (Malme-3M): 15.7 µM (inactive) | GI50 (NCI-H226): 11 µM (inactive) | GI50 (NCI-H23): 17.7 µM (inactive) | GI50 (NCI-H460): 13.7 µM (inactive) | GI50 (OVCAR-3): 16.8 µM (inactive) | GI50 (OVCAR-4): 15.7 µM (inactive) | GI50 (OVCAR-5): 16.7 µM (inactive) | GI50 (OVCAR-8): 10.3 µM (inactive) | GI50 (RXF 393): 11.2 µM (inactive) | GI50 (SF-268): 12.7 µM (inactive) | GI50 (SF-295): 15.8 µM (inactive) | GI50 (SF-539): 15.2 µM (inactive) | GI50 (SK-MEL-28): 13.6 µM (inactive) | GI50 (SK-MEL-2): 12.4 µM (inactive) | GI50 (SK-MEL-5): 14.5 µM (inactive) | GI50 (SK-OV-3): 17.7 µM (inactive) | GI50 (SN12C): 15.2 µM (inactive) | GI50 (SNB-19): 17.5 µM (inactive) | GI50 (SNB-75): 11.9 µM (inactive) | GI50 (SNB-78): 13.5 µM (inactive) | GI50 (SR): 1.46 µM (inactive) | GI50 (SW-620): 7.64 µM (inactive) | GI50 (TK-10): 14.7 µM (inactive) | GI50 (U-251): 14.3 µM (inactive) | GI50 (UACC-257): 16.3 µM (inactive) | GI50 (UACC-62): 13.3 µM (inactive) | GI50 (UO-31): 13.7 µM (inactive)
